This passage reports EC50 and IC50 results from ChEMBL document CHEMBL1146046, “Synthesis and biological evaluations of sulfanyltriazoles as novel HIV-1 non-nucleoside reverse transcriptase inhibitors” (Bioorg Med Chem Lett, 2006).

Common to all, as to format: functional, organism-based
For test [1], the system named is Human immunodeficiency virus 1. The test is described as follows: Antiviral activity against HIV1.
Test [2] relates to Human immunodeficiency virus 1. Description: Antiviral activity against HIV1 NNTRI resistant Y181C mutant.
The test system of test [3] is Human immunodeficiency virus 1. The test is described as follows: Antiviral activity against HIV1 NNTRI resistant Y188L mutant.
Test [4] concerns Human immunodeficiency virus 1. The test is described as follows: Antiviral activity against HIV1 NNTRI resistant K103N mutant.
For test [5], the system named is Human immunodeficiency virus 1. The test is described as follows: Antiviral activity against HIV1 NNTRI resistant L100I mutant.
Test [6] deals with Human immunodeficiency virus 1. The test is described as follows: Antiviral activity against HIV1 NNTRI resistant K103N/L100I mutant.

As a reminder, the EC50 is the concentration at which the effect is half-maximal. Read a low EC50 as greater potency. As usually defined, the IC50 is the concentration that gives 50% inhibition. A lower IC50 goes with greater potency. As for `COC(=O)c1ccccc1NC(=O)CSc1nnc(C)n1-c1ccc(C)cc1`, in test [1], it took 0.614 µM to reach a half-maximal effect (EC50) and the IC50 was > 10 µM.
As to `COc1ccccc1-n1c(C)nnc1SCC(=O)Nc1ccccc1Cl`, the EC50 in test [2] is 1.05 µM; in test [1], 0.059 µM; in test [3], > 1.65 µM; in test [4], 1.12 µM; in test [5], 0.1 µM. The IC50 in test [1] is > 10 µM.
Turning to `Cc1ccc(-n2c(C)nnc2SCC(=O)Nc2ccccc2[N+](=O)[O-])cc1`, the EC50 in test [2] was 0.016 µM; in test [1] it was 0.001 µM; in test [6], 0.024 µM; in test [3], 3.6 µM; in test [4] it was 0.006 µM. For the same compound, the concentration for half-maximal inhibition (IC50) in test [1] was > 10 µM.
Consider `COc1ccc(NC(=O)CSc2nnc(C)n2-c2ccc(C)cc2)cc1`, for which, in test [1], the response was half-maximal at 1.84 µM (EC50) and the IC50 is > 10 µM.
As to `COC(=O)c1cccc(NC(=O)CSc2nnc(C)n2-c2ccc(C)cc2)c1`, in test [1], the EC50 was > 10 µM and the IC50 is > 10 µM.
Turning to `Cc1ccc(-n2c(C)nnc2SCC(=O)Nc2ccc(Cl)cc2Cl)cc1`, the EC50 is 0.44 µM in test [2]; 0.02 µM in test [1]; > 3.33 µM in test [3]; 0.577 µM in test [4]; 0.186 µM in test [5]. Moreover, the IC50 in test [1] was > 10 µM.
Consider `Cc1ccc(-n2c(C)nnc2SC/C(S)=N/c2ccccc2Cl)cc1`, for which, in test [1], the EC50 is > 10 µM and the IC50 is > 10 µM.
Consider `Cc1ccc(-n2c(C)nnc2SCC(=O)Nc2ccc(C#N)cc2)cc1`, for which, in test [1], the EC50 is > 10 µM and the IC50 was > 10 µM.
In the case of `Cc1ccc(-n2c(C)nnc2SCC(=O)Nc2ccccc2Cl)cc1`, the EC50 in test [2] was found to be 0.023 µM; in test [1] it was 0.003 µM; in test [6], 0.182 µM; in test [3], 4.31 µM; in test [4] it was 0.065 µM. For the same compound, the IC50 in test [1] was > 10 µM.
In the case of `CC(=O)N1CCN(C(=O)CSc2nnc(C)n2-c2ccc(C)cc2)CC1`, in test [1], the EC50 was > 10 µM and the IC50 was > 10 µM.
`Cc1ccc(-n2c(C)nnc2SCC(=O)Nc2ccc([N+](=O)[O-])cc2)cc1`: in test [1], the EC50 was > 10 µM and the IC50 was > 10 µM.
As to `Cc1nnc(SCC(=O)Nc2ccccc2Cl)n1-c1ccccc1`, in test [1], the EC50 came out at 0.31 µM and the IC50 is > 10 µM.
With `Cc1ccc(-n2c(C)nnc2SCC(=O)Nc2ccccn2)cc1`, in test [1], the EC50 was > 10 µM and the IC50 is > 10 µM.
As for `Cc1nnc(SCC(=O)Nc2ccccc2Cl)n1Cc1ccccc1`, in test [1], the EC50 worked out at 3.41 µM and the IC50 was > 10 µM.
The matching figures for `Cc1ccc(-n2c(C)nnc2SCC(=O)Nc2ccc(Br)cc2)cc1`: > 10 µM and > 10 µM.
The matching figures for `CCCCCCCCCNC(=O)CSc1nnc(C)n1-c1ccc(C)cc1`: > 10 µM and > 10 µM.
As for `Cc1ccnc2c1NC(=O)c1cccnc1N2C1CC1` [NEVIRAPINE], the EC50 in test [2] and in test [3] was > 10 µM in each case. Also, the IC50 in test [1] was > 10 µM.
On to `COc1cccc(NC(=O)CSc2nnc(C)n2-c2ccc(C)cc2)c1`, for which the EC50 in test [2] is 0.161 µM; in test [1] it was 0.022 µM; in test [3], 2.19 µM; in test [4], 0.082 µM; in test [5] it was 0.031 µM. Besides, in test [1], the IC50 was > 10 µM.
For the compound `Cc1ccc(-n2c(COc3ccccc3)nnc2SCC(=O)Nc2ccccc2Cl)cc1`, in test [1], the midpoint of the response, the EC50, lay at 1.07 µM and the IC50 was > 10 µM.
As for `Cc1ccc(-n2c(C)nnc2SCC(=O)NC(C)(C)C)cc1`, in test [1], the EC50 was > 10 µM and the IC50 was > 10 µM.
With `Cc1ccc(-n2c(C)nnc2SCC(=O)Nc2cccc(C(F)(F)F)c2)cc1`, in test [1], the midpoint of the response, the EC50, lay at 2.87 µM and the IC50 is > 10 µM.
Take `Cc1nnc(SCC(=O)Nc2ccccc2Cl)n1C`: in test [1], the EC50 was > 10 µM and the IC50 is > 10 µM.
For the compound `Cc1ccc(-n2c(C)nnc2SCC(=O)Nc2cc(Cl)ccc2Cl)cc1`, the EC50 was 0.769 µM in test [2]; 0.037 µM in test [1]; > 10 µM in test [3]; 1.04 µM in test [4]; 0.835 µM in test [5]. Further, the IC50 in test [1] is > 10 µM.
For the compound `Cc1ccc(-n2c(C)nnc2SCC(=O)Nc2cccc(C)c2C)cc1`, in test [1], the EC50 was 0.128 µM and the IC50 is > 10 µM.
Take `Cc1ccc(-n2c(C)nnc2SCC(=O)N2CCOCC2)cc1`: in test [1], the EC50 is > 10 µM and the IC50 is > 10 µM.
Consider `Cc1ccc(-n2c(C)nnc2SCC(=O)Nc2ccc(Cl)cc2)cc1`, for which, in test [1], it took 1.36 µM to reach a half-maximal effect (EC50) and the IC50 was > 10 µM.
In test [1], `O=C1Nc2ccc(Cl)cc2C(C#CC2CC2)(C(F)(F)F)O1` (single isomer, unassigned) [EFAVIRENZ] registered an IC50 of 10 µM. Further, the results for the EC50 in test [4] and in test [5] were 0.019 µM and 0.013 µM, respectively.
`Cc1ccc(-n2c(C)nnc2SCC(=O)N2CCCCC2)cc1`: in test [1], the EC50 was > 10 µM and the IC50 is > 10 µM.
As to `COc1ccc(-n2c(C)nnc2SCC(=O)Nc2ccccc2Cl)cc1`, the EC50 in test [2] is 1.43 µM; in test [1] it was 0.079 µM; in test [3], > 3.33 µM; in test [4], 0.913 µM; in test [5], 1.23 µM. Also, in test [1], the IC50 was > 10 µM.
As to `Cc1ccc(-n2c(C)nnc2SCC(=O)Nc2ccccc2C#N)cc1`, in test [1], it took 0.17 µM to reach a half-maximal effect (EC50) and the IC50 was > 10 µM.
The matching figures for `Cc1ccc(-n2c(C)nnc2SCC(=O)Nc2ccc3ccccc3c2)cc1`: 0.412 µM and > 10 µM.
The corresponding values for `Cc1ccc(-n2c(C)nnc2SCC(=O)Nc2ccc(Cl)cc2C)cc1` are 0.215 µM and > 10 µM.
For the compound `Cc1ccc(-n2c(C)nnc2SCC(=O)Nc2ccccc2F)cc1`, the EC50 is 4.03 µM in test [2]; 0.068 µM in test [1]; > 10 µM in test [3]; 3.27 µM in test [4]; 1.38 µM in test [5]. Besides, the IC50 in test [1] was > 10 µM.
For the compound `Cc1ccc(-n2c(Cc3ccccc3)nnc2SCC(=O)Nc2ccccc2Cl)cc1`, in test [1], a half-maximal response (EC50) required 1.43 µM and the IC50 was > 10 µM.
`COC(=O)c1ccc(NC(=O)CSc2nnc(C)n2-c2ccc(C)cc2)cc1`: in test [1], a half-maximal response (EC50) required 0.822 µM and the IC50 was > 10 µM.
The corresponding values for `Cc1ccc(-n2c(C)nnc2SCC(=O)Nc2cccc(C#N)c2)cc1` are > 10 µM and > 10 µM.
The corresponding values for `Cc1ccc(-n2c(C)nnc2SCC(=O)Nc2ccncn2)cc1` are > 10 µM and > 10 µM.
Take `Cc1ccc(-n2c(C)nnc2SCC(=O)Nc2ccccc2C(F)(F)F)cc1`: the EC50 in test [2] is 1.38 µM; in test [1] it was 0.072 µM; in test [3] it was > 10 µM; in test [4], 1.51 µM; in test [5], 0.488 µM. The IC50 in test [1] was > 10 µM.
Regarding `Cc1ccc(-n2c(C)nnc2SCC(=O)Nc2cccc([N+](=O)[O-])c2)cc1`, in test [1], the EC50 is > 10 µM and the IC50 was > 10 µM.
On to `Cc1ccc(-n2c(C)nnc2SCC(=O)Nc2cccc(Br)c2)cc1`, for which, in test [1], the EC50 is > 10 µM and the IC50 is > 10 µM.
On to `Cc1ccc(-n2c(C)nnc2SCC(=O)Nc2ccccc2)cc1`, for which, in test [1], the EC50 came to 2.05 µM and the IC50 is > 10 µM.
Regarding `Cc1ccc(-n2c(C)nnc2SCC(=O)Nc2ccccc2C)cc1`, in test [1], a half-maximal response (EC50) required 0.112 µM and the IC50 was > 10 µM.
Turning to `Cc1ccc(-n2c(C)nnc2SCC(=O)N(C)c2ccccc2Cl)cc1`, in test [1], the EC50 was > 10 µM and the IC50 is > 10 µM.
As for `Cc1ccc(-n2c(C)nnc2SCC(=O)Nc2ccccc2Br)cc1`, in test [1], the EC50 was > 10 µM and the IC50 is > 10 µM.
Take `Cc1ccc(-n2c(SCC(=O)Nc3ccccc3Cl)nnc2-c2ccncc2)cc1`: in test [1], the EC50 is 4.21 µM and the IC50 was > 10 µM.
For the compound `CCn1c(C)nnc1SCC(=O)Nc1ccccc1Cl`, in test [1], the EC50 was > 10 µM and the IC50 was > 10 µM.
In the case of `COc1ccccc1-c1nnc(SCC(=O)Nc2ccccc2Cl)n1-c1ccc(C)cc1`, in test [1], the EC50 came to 2.07 µM and the IC50 is > 10 µM.
As to `Cc1ccc(-n2c(SCC(=O)Nc3ccccc3Cl)nnc2-c2ccc(Cl)cc2)cc1`, in test [1], the EC50 worked out at 3.78 µM and the 50% inhibitory concentration (IC50) was > 10 µM.
On to `Cc1nnc(SCC(=O)Nc2ccccc2Cl)n1-c1cccc2c1OCCO2`, for which the EC50 is 0.219 µM in test [2]; 0.018 µM in test [1]; > 3.33 µM in test [3]; 0.565 µM in test [4]; 0.17 µM in test [5]. Further, the IC50 in test [1] is > 10 µM.
Regarding `Cc1ccc(NC(=O)CSc2nnc(C)n2-c2ccc(C)cc2)cc1`, in test [1], the EC50 is > 10 µM and the IC50 was > 10 µM.
